How the values were obtained:
[1] = test system: Prostate-specific Antigen (PSA) production in 22RV1 cells; test: PSA assay: inhibition of PSA production in 22RV1 cells (ELISA); format: cell-based; details: Homo sapiens, 72 h, R1881 1 ng/ml, three days
Method: (§1) PSA Assay (Inhibition Test of the Compound of the Present Invention on Prostate-Specific Antigen (PSA) Production in Various Prostate Cancer Cells)
Androgen dependent LNCaP and 22RV1 cells were purchased from the American Type Culture Collection (ATCC, Manassas, Va.). These cells were grown in RPMI 1640 medium supplemented with 10% fetal bovine serum (FBS), 100 U/mL penicillin, 100 μg/mL streptomycin, and 0.25 μg/mL amphotericin B. The cells were maintained at 37° C. and 5% CO2. LNCaP cells between passage 20 and 35, and 22RV1 cells between passage 30 and 50 were used for experiments. LNCaP is a hormone sensitive cell line, while 22RV1 is a hormone refractory prostate cancer cell line, which derived from a primary prostate tumor. This cell line was isolated from a xenograft (CWR22R-2152) that was serially propagated in mice after castration-induced regression and relapse of the parental, androgen-dependent CWR xenograft. For the PSA assay, human prostate cancer cells LNCaP or 22RV1 were seeded in a 96-well plate at a concentration of 5000 cells/100 μl/well. On the following day, Methyltrienolone (R1881, AR agonist) (final concentration 1 ng/ml), test compounds or bicalutamide (Casodex®, AstraZeneca) (final concentration 0.005 to 20 μM) were added. Three days after the addition, the concentration of PSA in the supernatant of the culture solution was measured by ELISA. ELISAs for human PSA in culture medium were performed using the ultra-sensitive assay procedure and reagents in the Active™ PSA assay kit (Diagnostic Systems Laboratories Inc., Webster, Tex.). Culture medium and standards (200 μl/well) were incubated in antibody-coated plates for 2 h at room temperature on a Titer plate shaker at 500-600 rpm. Wells were then washed five times. The HRP conjugate was diluted 1:20 with assay buffer, and 100 μl was added to all wells. The plates were incubated for 30 min at room temperature on the shaker and washed as before, and 100 μl TMB (3,3′,5,5′-tetramethylbenzidine, 0.4 g/l) was added. The plates were incubated for 10 min on the shaker, and the reaction was terminated with 100 μl stop solution. The plates were read using a plate reader at 450 nm with a 650 nm reference filter. PSA levels were normalized for differences in growth of LNCaP or 22RV1 cells following various treatments as determined by the MTS assay. IC50 of PSA was calculated based on a seven point assay (concentrations of tested compound) and expressed as micromolar (uM). […] ND means not determined

[2] = test system: Prostate-specific Antigen (PSA) production in LNCaP cells; test: PSA assay: inhibition of PSA production in LNCaP cells (ELISA); format: cell-based; details: Homo sapiens, 72 h, R1881 1 ng/ml, three days, seven point assay
Method: as §1
Androgen dependent LNCaP and 22RV1 cells were purchased from the American Type Culture Collection (ATCC, Manassas, Va.). These cells were grown in RPMI 1640 medium supplemented with 10% fetal bovine serum (FBS), 100 U/mL penicillin, 100 μg/mL streptomycin, and 0.25 μg/mL amphotericin B. The cells were maintained at 37° C. and 5% CO2. LNCaP cells between passage 20 and 35, and 22RV1 cells between passage 30 and 50 were used for experiments. LNCaP is a hormone sensitive cell line, while 22RV1 is a hormone refractory prostate cancer cell line, which derived from a primary prostate tumor. This cell line was isolated from a xenograft (CWR22R-2152) that was serially propagated in mice after castration-induced regression and relapse of the parental, androgen-dependent CWR xenograft. For the PSA assay, human prostate cancer cells LNCaP or 22RV1 were seeded in a 96-well plate at a concentration of 5000 cells/100 μl/well. On the following day, Methyltrienolone (R1881, AR agonist) (final concentration 1 ng/ml), test compounds or bicalutamide (Casodex®, AstraZeneca) (final concentration 0.005 to 20 μM) were added. Three days after the addition, the concentration of PSA in the supernatant of the culture solution was measured by ELISA. ELISAs for human PSA in culture medium were performed using the ultra-sensitive assay procedure and reagents in the Active™ PSA assay kit (Diagnostic Systems Laboratories Inc., Webster, Tex.). Culture medium and standards (200 μl/well) were incubated in antibody-coated plates for 2 h at room temperature on a Titer plate shaker at 500-600 rpm. Wells were then washed five times. The HRP conjugate was diluted 1:20 with assay buffer, and 100 μl was added to all wells. The plates were incubated for 30 min at room temperature on the shaker and washed as before, and 100 μl TMB (3,3′,5,5′-tetramethylbenzidine, 0.4 g/l) was added. The plates were incubated for 10 min on the shaker, and the reaction was terminated with 100 μl stop solution. The plates were read using a plate reader at 450 nm with a 650 nm reference filter. PSA levels were normalized for differences in growth of LNCaP or 22RV1 cells following various treatments as determined by the MTS assay. IC50 of PSA was calculated based on a seven point assay (concentrations of tested compound) and expressed as micromolar (uM). Results on 22RV1 cells are shown as percent inhibition at 2 micromolar (uM). ND means not determined

LNCaP cells = test: Cell viability assay, LNCaP cells; format: cell-based; details: Homo sapiens, LNCaP, 48 h, read-out: Inhibition of cell viability, LNCaP % inhibition at 2.5 uM
Method: (§2) LNCaP and 22RV1 cells were maintained in RPMI 1640 medium supplemented with 10% fetal bovine serum (FBS), 100 U/mL penicillin, 100 μg/mL streptomycin, and 0.25 μg/mL amphotericin B, splitting cells when they reached 80-90% confluence. In order to test compounds, 10,000 cells/well were plated in 96 cell culture plates using 100 ul/well plating medium, cultured overnight at 37° C. in a cell culture incubator. After carefully remove plating medium, 80 ul/well of pre-warmed assay medium was added, followed by adding 10 ul/well test compounds or bicalutamide (final concentration from 20 uM to 0.1 uM), incubated at 37° C. for 30 minutes, then adding 10 ul/well freshly prepared Methyltrienolone (R1881, AR agonist) (final concentration 1 ng/ml) to each well, incubate at 37° C. for 48-hour. At the end of incubation, 20 μl MTT (2.5 mg/ml in PBS) was added to each well, and the cells were further incubated for 2 h at 37 C to allow a complete reaction between the dye and the enzyme mitochondrial dehydrogenase in the viable cells. After removal of the residual dye and medium, 100 μl dimethylsulfoxide was added to each well, and the absorbance at 570 nm was measured with an microplate reader. The fold induction over background by 1 nM R1881 in the absence of test compounds is standardized as 100% and experimental result is expressed as percentage of inhibition by testing compounds at 2.5 micromolar (uM).

C57BL/6 mice = test: C57BL/6 mouse hair growth model; format: in vivo
Excerpt: C57BL/6 Mouse Hair Growth Model
Six-to 8-wk-old male C57BL/6 mice in the telogen stage of the hair cycle, weighing 15-20 g, were purchased and housed in community cages under standard conditions. The growth phase of the hair cycle (anagen) was induced in the back skin of mice with all follicles in the resting phase of the hair cycle (telogen; as judged from their homogeneously pink skin color) by being shaved on the lower back using an electric shaver under mild anesthesia. Only mice in the telogen phase (pink skin) were used in the studies. Twenty microliters of test article at two concentrations in propylene glycol/ethanol (30:70, v/v) or the vehicle control was topically applied to the shaved lower back of the mice to cover an area of approximately 1 cm^2 (20 uL/cm^2). Five mice were used in each group. The mice were treated with the compound by topical application twice daily (BID) for 4 weeks. Local irritation was recorded daily before each application, and hair growth scores were recorded twice per week. The scoring system for mouse hair growth was 0 to 4: 0=no hair growth, pink skin color; 1=skin color in shaved area changes from pink to gray without visible hair growth, indicating the onset of anagen; 2=skin color in shaved area is black with tiny hairs; 3=short black hair in shaved area; and 4=hair in shaved area is almost close to surrounding area. […]

22RV1 cells = test: Cell viability assay, 22RV1 cells; format: cell-based, human; details: Homo sapiens, 22Rv1, 48 h, read-out: Inhibition of cell viability, 22RV1 % inhibition at 2.5 uM
Method: as §2

## CNC(=O)c1ccc(N2C(=S)N(c3ccc(C#N)c(C(F)(F)F)c3F)C(=O)C2(C)C)cc1F [Example 12, 4-[3-(4-Cyano-2-fluoro-3-trifluoromethyl-phenyl)-5,5-dimethyl-4-oxo-2-thioxo-imidazolidin-1-yl]-2-fluoro-N-methyl-benzamide]
[1]
  inhibition at 2 µM: 71%
[2]
  IC50: 280 nM
LNCaP cells
  cytotoxicity at 2.5 µM: 86%
C57BL/6 mice; topical BID for 4 weeks, 0.2% and 1% in 30% propylene glycol and 70% ethanol, FIG. 1
  hair growth stimulation: stimulated hair growth in dose dependent patterns
C57BL/6 mice; topical, compared to reference androgen receptor antagonist RU-58841
  in vivo activity for promoting hair growth compared to RU-58841: better in vivo activity for promoting hair growth
22RV1 cells
  cytotoxicity at 2.5 µM: 61%
